Active and inactive are the calls of the source. How the calls were made is not given here.
Target: alkaline phosphatase, placental type (human)
Experiment: PLAP enzyme inhibition by analogs, SAR follow-up, selectivity assay for mouse IAP inhibitor project, biochemical, human PLAP isozyme, set 2 (AID 588641)
Conditions: purified human placental alkaline phosphatase, enzyme activity

Row | Structure (SMILES) | IC50
1 | O=C(CCNS(=O)(=O)c1ccc2[nH]c(=O)oc2c1)NCc1ccccc1 | > 100 µM (inactive)
2 | O=C(CCNS(=O)(=O)c1ccc2[nH]c(=O)oc2c1)Nc1ccc2c(c1)OCO2 | > 100 µM (inactive)
3 | CSc1cccc(NC(=O)C2CCCN(S(=O)(=O)c3ccc4c(c3)oc(=O)n4C)C2)c1 (stereo not given) | > 100 µM (inactive)
4 | O=C(CCS(=O)(=O)Nc1ccc2[nH]c(=O)oc2c1)NCc1ccccc1Cl | > 100 µM (inactive)
5 | CCOc1cc(C(=O)N/N=C/c2c(F)cccc2Cl)cc(OCC)c1OCC | > 100 µM (inactive)
6 | COc1ccc(CNC(=O)CCCNS(=O)(=O)c2ccc3[nH]c(=O)oc3c2)c(OC)c1 | > 100 µM (inactive)
7 | N#Cc1cccc(CNC(=O)CCNS(=O)(=O)c2ccc3[nH]c(=O)oc3c2)c1 | > 100 µM (inactive)
8 | O=C(CCNS(=O)(=O)c1ccc2[nH]c(=O)oc2c1)NCc1ccccc1F | > 100 µM (inactive)
9 | CC(C)c1ccc(NC(=O)C2CCCN(S(=O)(=O)c3ccc4c(c3)oc(=O)n4C)C2)cc1 (stereo not given) | > 100 µM (inactive)
10 | O=C(CCCNS(=O)(=O)c1ccc2[nH]c(=O)oc2c1)NCc1ccc2c(c1)OCO2 | > 100 µM (inactive)
11 | COc1cccc(CNS(=O)(=O)c2ccc3[nH]c(=O)oc3c2)c1 | > 100 µM (inactive)
12 | CCOc1ccc(CNC(=O)C2CCCN(S(=O)(=O)c3ccc4[nH]c(=O)oc4c3)C2)cc1OC (stereo not given) | > 100 µM (inactive)
13 | Cc1ccccc1CNC(=O)C1CCCN(S(=O)(=O)c2ccc3[nH]c(=O)oc3c2)C1 (stereo not given) | > 100 µM (inactive)
14 | O=C(CCNS(=O)(=O)c1ccc2c(c1)CCC2)NCCc1ccc2c(c1)OCO2 | > 100 µM (inactive)
15 | COc1ccc(OC)c(NC(=O)C2CCCN(S(=O)(=O)c3ccc4c(c3)oc(=O)n4C)C2)c1 (stereo not given) | > 100 µM (inactive)
16 | Cc1ccc(C)c(NS(=O)(=O)c2ccc3[nH]c(=O)oc3c2)c1 | > 100 µM (inactive)
17 | Cc1ccc(C)c(NC(=O)CCNS(=O)(=O)c2ccc3c(c2)CCC3)c1 | > 100 µM (inactive)
18 | C/C(=N\NC(=O)c1cc(O)c(O)c(O)c1)c1ccc(O)cc1O | > 100 µM (inactive)
19 | COc1ccccc1CNC(=O)CCNS(=O)(=O)c1ccc2[nH]c(=O)oc2c1 | > 100 µM (inactive)
20 | COc1ccc(CNC(=O)CCNS(=O)(=O)c2ccc3c(c2)CCC3)c(OC)c1 | > 100 µM (inactive)
21 | O=C(CCS(=O)(=O)Nc1ccc2[nH]c(=O)oc2c1)NCc1cccc(F)c1 | > 100 µM (inactive)

The next lines start with the values.

Row | IC50 | Structure (SMILES)
22 | > 100 µM (inactive) | O=C(N/N=C/c1ccccc1Cl)c1cc(O)c(O)c(O)c1
23 | > 100 µM (inactive) | COc1ccc(CCNC(=O)CCCNS(=O)(=O)c2ccc3[nH]c(=O)oc3c2)cc1
24 | > 100 µM (inactive) | O=C(NCc1ccc2c(c1)OCO2)C1CCCN(S(=O)(=O)c2ccc3[nH]c(=O)oc3c2)C1 (stereo not given)
25 | > 100 µM (inactive) | COc1cccc(NC(=O)CCNS(=O)(=O)c2ccc3c(c2)oc(=O)n3C)c1
26 | > 100 µM (inactive) | O=C(N/N=C/c1ccc(F)c(Br)c1)c1cc(O)c(O)c(O)c1
27 | > 100 µM (inactive) | O=C(CNS(=O)(=O)c1ccc2[nH]c(=O)oc2c1)NCCc1ccc2c(c1)OCO2
28 | > 100 µM (inactive) | O=c1[nH]c2ccc(S(=O)(=O)Nc3ccc4c(c3)OCO4)cc2o1
29 | > 100 µM (inactive) | COc1ccc(C(=O)N/N=C/c2ccccc2F)cc1
30 | > 100 µM (inactive) | COc1ccc(CNC(=O)CNS(=O)(=O)c2ccc3[nH]c(=O)oc3c2)cc1
31 | > 100 µM (inactive) | O=C(CCNS(=O)(=O)c1ccc2[nH]c(=O)oc2c1)NCCc1ccc(O)cc1
32 | > 100 µM (inactive) | COc1ccc(NC(=O)CCNS(=O)(=O)c2ccc3[nH]c(=O)oc3c2)cc1OC
33 | > 100 µM (inactive) | O=C(N/N=C/c1ccccc1F)c1ccccc1OCc1ccccc1
34 | > 100 µM (inactive) | COc1ccc(/C=N\NC(=O)c2cc(O)c(O)c(O)c2)cc1CN1CCN(c2ccc(F)cc2)CC1
35 | > 100 µM (inactive) | Cc1ccc(NC(=O)CCNS(=O)(=O)c2ccc3[nH]c(=O)oc3c2)cc1C
